Results on 26 molecules are retold here after US11820766B2, “Monoacylglycerol lipase modulators” (Janssen Pharmaceutica NV, priority 2018, dated 2023).

The term IC50 denotes the midpoint of a concentration-inhibition curve.

Counter-ions that a name gives are not always drawn.

The target of this assay is T1, human MGL from HeLa cells (Homo sapiens, UniProt Q99685).
T1 construct: combining endogenously expressed MGL from HeLa cells with test compounds; endogenous in cells; host or cells: HeLa cells / cell homogenates
T1 sequence (Q99685 1-303): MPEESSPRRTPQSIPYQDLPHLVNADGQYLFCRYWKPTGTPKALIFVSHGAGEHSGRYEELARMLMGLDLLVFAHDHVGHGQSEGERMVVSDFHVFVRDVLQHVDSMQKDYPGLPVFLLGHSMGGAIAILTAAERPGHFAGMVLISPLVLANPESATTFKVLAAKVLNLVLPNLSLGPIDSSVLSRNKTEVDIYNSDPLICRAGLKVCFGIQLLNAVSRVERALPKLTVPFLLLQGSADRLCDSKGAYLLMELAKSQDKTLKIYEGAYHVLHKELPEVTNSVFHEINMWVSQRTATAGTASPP
Kind of assay: In vitro MGL activity assay: [glycerol-1,3-3H]-oleyl glycerol cleavage by MGL from HeLa cells. To be noted: 300 nM [Glycerol-1,3-3H]-oleyl glycerol, one hour. The format is biochemical. An excerpt: MGL is the predominant hydrolase in HeLa cells/cell homogenates.
As for `Cc1nn(C)c2nccc(C(=O)N3CCc4c(nn(C)c4-c4cc(F)c(F)c(F)c4)[C@@H]3C)c12` [Example 425, (1,3-Dimethylpyrazolo[3,4-b]pyridin-4-yl)-[(7S)-2,7-dimethyl-3-(3,4,5-trifluorophenyl)-5,7-dihydro-4H-pyrazolo[3,4-c]pyridin-6-yl]methanone], the IC50 amounted to 68.1 nM.
The figure for `C[C@H]1c2nn(C)c(-c3cc(F)c(F)c(F)c3)c2CCN1C(=O)c1n[nH]c2ncccc12` [Example 426, [(7S)-2,7-Dimethyl-3-(3,4,5-trifluorophenyl)-5,7-dihydro-4H-pyrazolo[3,4-c]pyridin-6-yl]-(1H-pyrazolo[3,4-b]pyridin-3-yl)methanone] is 14.5 nM; for `C[C@H]1c2nn(C)c(-c3cc(F)c(F)c(F)c3)c2CCN1C(=O)c1nn(C)c2ncccc12` [Example 427, [(7S)-2,7-Dimethyl-3-(3,4,5-trifluorophenyl)-5,7-dihydro-4H-pyrazolo[3,4-c]pyridin-6-yl]-(1-methylpyrazolo[3,4-b]pyridin-3-yl)methanone] it is 28.6 nM; for `C[C@H]1c2nn(C)c(-c3cc(F)c(F)c(F)c3)c2CCN1C(=O)c1n[nH]c2ncc(F)cc12` [Example 428, [(7S)-2,7-Dimethyl-3-(3,4,5-trifluorophenyl)-5,7-dihydro-4H-pyrazolo[3,4-c]pyridin-6-yl]-(5-fluoro-1H-pyrazolo[3,4-b]pyridin-3-yl)methanone.TFA salt] it is 23 nM.
As to `C[C@H]1c2nn(C)c(-c3cc(F)c(F)c(F)c3)c2CCN1C(=O)c1nccc2cn(C)nc12` [Example 429, [(7S)-2,7-Dimethyl-3-(3,4,5-trifluorophenyl)-5,7-dihydro-4H-pyrazolo[3,4-c]pyridin-6-yl]-(2-methylpyrazolo[3,4-c]pyridin-7-yl)methanone], half-maximal inhibition (IC50) required 412 nM.
The figure for `C[C@H]1c2nn(C)c(-c3cc(F)c(F)c(F)c3)c2CCN1C(=O)c1n[nH]c2cnccc12` [Example 430, [(7S)-2,7-Dimethyl-3-(3,4,5-trifluorophenyl)-5,7-dihydro-4H-pyrazolo[3,4-c]pyridin-6-yl]-(1H-pyrazolo[3,4-c]pyridin-3-yl)methanone] is 56.1 nM.
The figure for `C[C@H]1c2nn(C)c(-c3cc(F)c(F)c(F)c3)c2CCN1C(=O)c1nn(C)c2cnccc12` [Example 431, [(7S)-2,7-Dimethyl-3-(3,4,5-trifluorophenyl)-5,7-dihydro-4H-pyrazolo[3,4-c]pyridin-6-yl]-(1-methylpyrazolo[3,4-c]pyridin-3-yl)methanone.TFA salt] is 95.3 nM; for `C[C@H]1c2nn(C)c(-c3cc(F)c(F)c(F)c3)c2CCN1C(=O)c1nccc2cn[nH]c12` [Example 432, [(7S)-2,7-Dimethyl-3-(3,4,5-trifluorophenyl)-5,7-dihydro-4H-pyrazolo[3,4-c]pyridin-6-yl]-(1H-pyrazolo[3,4-c]pyridin-7-yl)methanone] it is 274 nM.
The figure for `C[C@H]1c2nn(C)c(-c3cc(F)c(F)c(F)c3)c2CCN1C(=O)c1nccc2cnn(C)c12` [Example 433, [(7S)-2,7-Dimethyl-3-(3,4,5-trifluorophenyl)-5,7-dihydro-4H-pyrazolo[3,4-c]pyridin-6-yl]-(1-methylpyrazolo[3,4-c]pyridin-7-yl)methanone] is 104 nM; for `C[C@H]1c2nn(C)c(-c3cc(F)c(F)c(F)c3)c2CCN1C(=O)c1cncc2cn[nH]c12` [Example 434, [(7S)-2,7-Dimethyl-3-(3,4,5-trifluorophenyl)-5,7-dihydro-4H-pyrazolo[3,4-c]pyridin-6-yl]-(1H-pyrazolo[4,3-c]pyridin-7-yl)methanone] it is 277 nM.
On to `C[C@H]1c2nn(C)c(-c3cc(F)c(F)c(F)c3)c2CCN1C(=O)c1n[nH]c2ccncc12` [Example 435, [(7S)-2,7-Dimethyl-3-(3,4,5-trifluorophenyl)-5,7-dihydro-4H-pyrazolo[3,4-c]pyridin-6-yl]-(1H-pyrazolo[4,3-c]pyridin-3-yl)methanone], for which half-maximal inhibition (IC50) required 40.2 nM.
The figure for `C[C@H]1c2nn(C)c(-c3cc(F)c(F)c(F)c3)c2CCN1C(=O)c1n[nH]c2cccnc12` [Example 436, [(7S)-2,7-Dimethyl-3-(3,4,5-trifluorophenyl)-5,7-dihydro-4H-pyrazolo[3,4-c]pyridin-6-yl]-(1H-pyrazolo[4,3-b]pyridin-3-yl)methanone] is 175 nM.
The figure for `C[C@H]1c2nn(C)c(-c3cc(F)c(F)c(F)c3)c2CCN1C(=O)c1nnc2ccccn12` [Example 437, [(7S)-2,7-Dimethyl-3-(3,4,5-trifluorophenyl)-5,7-dihydro-4H-pyrazolo[3,4-c]pyridin-6-yl]-([1,2,4]triazolo[4,3-a]pyridin-3-yl)methanone] is 187 nM.
Turning to `C[C@H]1c2nn(C)c(-c3cc(F)c(F)c(F)c3)c2CCN1C(=O)c1cccc2nncn12` [Example 438, [(7S)-2,7-Dimethyl-3-(3,4,5-trifluorophenyl)-5,7-dihydro-4H-pyrazolo[3,4-c]pyridin-6-yl]-([1,2,4]triazolo[4,3-a]pyridin-5-yl)methanone], 513 nM corresponded to half-maximal inhibition (IC50).
The figure for `C[C@H]1c2nn(C)c(-c3cc(F)c(F)c(F)c3)c2CCN1C(=O)c1ccc2nncn2c1` [Example 439, [(7S)-2,7-Dimethyl-3-(3,4,5-trifluorophenyl)-5,7-dihydro-4H-pyrazolo[3,4-c]pyridin-6-yl]-([1,2,4]triazolo[4,3-a]pyridin-6-yl)methanone] is 9270 nM.
The figure for `C[C@H]1c2nn(C)c(-c3cc(F)c(F)c(F)c3)c2CCN1C(=O)c1ccc2nnc(C(F)F)n2c1` [Example 440, [3-(Difluoromethyl)-[1,2,4]triazolo[4,3-a]pyridin-6-yl]-[(7S)-2,7-dimethyl-3-(3,4,5-trifluorophenyl)-5,7-dihydro-4H-pyrazolo[3,4-c]pyridin-6-yl]methanone] is 865 nM.
The figure for `C[C@H]1c2nn(C)c(-c3cc(F)c(F)c(F)c3)c2CCN1C(=O)c1nnn2ccccc12` [Example 441, [(7S)-2,7-Dimethyl-3-(3,4,5-trifluorophenyl)-5,7-dihydro-4H-pyrazolo[3,4-c]pyridin-6-yl]-(triazolo[1,5-a]pyridin-3-yl)methanone] is 24.1 nM.
Consider `Cc1nn2ncccc2c1C(=O)N1CCc2c(nn(C)c2-c2cc(F)c(F)c(F)c2)[C@@H]1C` [Example 442, [(7S)-2,7-Dimethyl-3-(3,4,5-trifluorophenyl)-5,7-dihydro-4H-pyrazolo[3,4-c]pyridin-6-yl]-(2-methylpyrazolo[1,5-b]pyridazin-3-yl) methanone], for which the half-inhibitory concentration (IC50) was found to be 43.9 nM.
In the case of `Cc1cnn2ncc(C(=O)N3CCc4c(nn(C)c4-c4cc(F)c(F)c(F)c4)[C@@H]3C)c2c1` [Example 443, [(7S)-2,7-Dimethyl-3-(3,4,5-trifluorophenyl)-5,7-dihydro-4H-pyrazolo[3,4-c]pyridin-6-yl]-(5-methylpyrazolo[1,5-b]pyridazin-3-yl) methanone], half-maximal inhibition (IC50) was put at 12.4 nM.
The figure for `Cc1ccnn2nc(C3CC3)c(C(=O)N3CCc4c(nn(C)c4-c4cc(F)c(F)c(F)c4)[C@@H]3C)c12` [Example 444, (2-Cyclopropyl-4-methyl-pyrazolo[1,5-b]pyridazin-3-yl)-[(7S)-2,7-dimethyl-3-(3,4,5-trifluorophenyl)-5,7-dihydro-4H-pyrazolo[3,4-c]pyridin-6-yl]methanone] is 2380 nM; for `Cc1cnn2nc(C3CC3)c(C(=O)N3CCc4c(nn(C)c4-c4cc(F)c(F)c(F)c4)[C@@H]3C)c2c1` [Example 445, (2-Cyclopropyl-5-methyl-pyrazolo[1,5-b]pyridazin-3-yl)-[(7S)-2,7-dimethyl-3-(3,4,5-trifluorophenyl)-5,7-dihydro-4H-pyrazolo[3,4-c]pyridin-6-yl]methanone] it is 525 nM.
The figure for `Cc1nn2ccnc(C)c2c1C(=O)N1CCc2c(nn(C)c2-c2cc(F)c(F)c(F)c2)[C@@H]1C` [Example 446, (2,4-Dimethylpyrazolo[1,5-a]pyrazin-3-yl)-[(7S)-2,7-dimethyl-3-(3,4,5-trifluorophenyl)-5,7-dihydro-4H-pyrazolo[3,4-c]pyridin-6-yl] methanone] is 34.1 nM; for `Cc1nccn2nc(C3CC3)c(C(=O)N3CCc4c(nn(C)c4-c4cc(F)c(F)c(F)c4)[C@@H]3C)c12` [Example 447, (2-Cyclopropyl-4-methyl-pyrazolo[1,5-a]pyrazin-3-yl)-[(7S)-2,7-dimethyl-3-(3,4,5-trifluorophenyl)-5,7-dihydro-4H-pyrazolo[3,4-c]pyridin-6-yl]methanone] it is 392 nM; for `C[C@H]1c2nn(C)c(-c3cc(F)c(F)c(F)c3)c2CCN1C(=O)c1cnn2cccnc12` [Example 448, [(7S)-2,7-Dimethyl-3-(3,4,5-trifluorophenyl)-5,7-dihydro-4H-pyrazolo[3,4-c]pyridin-6-yl]-pyrazolo[1,5-a]pyrimidin-3-yl-methanone] it is 113 nM.
The figure for `Cc1nn2cccnc2c1C(=O)N1CCc2c(nn(C)c2-c2cc(F)c(F)c(F)c2)[C@@H]1C` [Example 449, [(7S)-2,7-Dimethyl-3-(3,4,5-trifluorophenyl)-5,7-dihydro-4H-pyrazolo[3,4-c]pyridin-6-yl]-(2-methylpyrazolo[1,5-a]pyrimidin-3-yl)methanone] is 49 nM.
`Cc1ccnc2c(C(=O)N3CCc4c(nn(C)c4-c4cc(F)c(F)c(F)c4)[C@@H]3C)cnn12` [Example 450, [(7S)-2,7-Dimethyl-3-(3,4,5-trifluorophenyl)-5,7-dihydro-4H-pyrazolo[3,4-c]pyridin-6-yl]-(7-methylpyrazolo[1,5-a]pyrimidin-3-yl) methanone]: the half-maximal inhibitory concentration (IC50) was 172 nM.
